Experimental data reported in patent US6019959A, “Oligomeric compounds that contain perfluoroalkyl, process for their production, and their use in NMR diagnosis” (Schering Aktiengesellschaft, priority 1998, dated 2000).
Blank lines part the entries; values can stand above or below the compound they belong to.

Experiments:
[1] = Determination of the T1-relaxivity with a Minispec pc 20 in human plasma; format: physicochemical; conditions: 0.47 T (20 MHz), 37° C., human plasma, normalized to one metal atom
Method: Determination of the T^1 -Relaxivity of Selected Compounds
The relaxivity of the following compounds was determined
with a Minispec pc 20 (20 MHz, 0.47 T) at 37° C. in human plasma
and compared to that of Gd-DTPA-polylysine and Magnevist^(R) as
comparison substances. Since the substances according to the
invention contain more than one metal atom, the relaxivity was
normalized to one metal atom for purposes of comparison.

[2] = T1-relaxivity of commercially available 1H-NMR contrast media; format: physicochemical; conditions: 39° C., 0.47 T
[3] = In-vivo comparison with an intravascular and an extracellular contrast medium in blocked kidneys (diffusibility); parameters: species or system rats; conditions: i.v., blocked renal vessels, compound 2 set at 100%
Method: As test animals, three 250 g male (Schering-SPF) rats were used. The renal vessels in the animals were blocked to prevent renal elimination and, assuming that fecal elimination is negligible, to obtain a measure of the diffusibility of the formulation according to the invention from the blood into the surrounding tissue. 0.5 ml (in each case 10 mmol/l) of the following contrast medium solution was intravenously administered per animal: a mixture consisting of 1 part each of the compound of Example 1g, named compound 1 below, of intravascular contrast medium Eu-DTPA-albumin, named compound 2 below and of extracellular contrast medium Dy-DTPA, named compound 3 below. Via a catheter in the common carotid artery, blood samples were taken at the following times: 15, 30, 45, 60, 90 seconds; 3, 5, 10, 15 minutes p.i. In the blood samples that were obtained, in each case the concentrations of gadolinium (Gd), europium (Eu) and dysprosium (Dy) were measured in parallel using atom emission spectrometry (ICP-AES). The proportion of the intravascular contrast medium compound 2 (Eu) that remains in the blood space was set at 100%. It was possible to compare the proportion of the formulation according to the invention of compound 1 (Gd) and compound 3 (Dy, extracellular comparison substance) that remained in the blood space by the different labeling in the same animal, and the proportion was set as a percentage of the concentration of compound 2.

[4] = Blood elimination kinetics after one-time intravenous administration; format: in vivo, rats; conditions: two-compartment model, n=3
Method: (§1) For this purpose, after one-time intravenous administration (via a caudal vein) of the substances (dose: ≈100 μmol of metal per kg of body weight), the substance concentration in the blood (based on the Gd or Dy content) was determined over a period of up to 120 minutes p.i. using ICP-AES. The pharmacokinetic parameters: distribution volume (Vss), total clearance (CLtot) and elimination half-life (tb) were calculated with a special computer program (TOPFIT 2.0; Thomae, Schering, Godecke), whereby a two-compartment distribution model was used as a basis.
The Gd and Dy contents in the blood were determined using ICP-AES.
as §1, with “metal” for “Gd or Dy”

[5] = Table 3, i.v. ≈100 μmol metal/kg
[6] = Table 4, i.v. ≈100 μmol metal/kg

Compound: 1,4,7-Tris{1,4,7-tris-(N-carboxylatomethyl)-10-[N-(4,7-diaza-3,6,9-trioxo)-nonane-2,9-diyl]-1,4,7,10-tetraazacyclododecane, Gd complex-10-(N-22F,22F,22F,21F,21F,20F,20F,19F,19F,18F,18F,17F,17F,16F,16F,15F,15F-heptadecafluoro-12-oxa-docosanoyl)-1,4,7,10-tetraazacyclododecane [14e)]
R^1 (T^1-relaxivity) [1]: 19.3 L/mmol/s

Compound: 1,4,7-Tris{N-3,3,6-tris(carboxylatomethyl)-6-[N-3-aza-2,5-dioxo-pentane-1,5-diyl]-3,6,9-triazaundecane-1,11-dioic acid, Gd complex, monosodium salt}-10-2H,2H,4H,4H,5H,5H-3-oxa-perfluoro-tridecanoyl)-1,4,7,10-tetraazacyclododecane [8b)]
R^1 (T^1-relaxivity) [1]: 20.6 L/mmol/s

Compound: 1,4,7-Tris{N-3,9-bis(carboxylatomethyl)-6-[N-3-aza-2,5-dioxo-pentane-1,5-diyl]-3,6,9-triazaundecane-1-carboxylato-11-acid, Gd complex, sodium salt}-10-[N-acetyl-(2-amino-N-ethyl-N-perfluorooctylsulfonyl)]-1,4,7,10-tetraazacyclododecane [18d)]
R^1 (T^1-relaxivity) [1]: 23.0 L/mmol/s

Compound: 1,4,7-Tris{N-[3,9-bis(N-carboxylatomethyl)]-6-[N-(3-aza-2,5-dioxo-pentane)-1,5-diyl]-3,6,9-triazaundecane-1-carboxylato-11-acid, Gd complex, monosodium salt}-10-N-{undecanoyl-<11-amino-N-[acetyl-(2-amino-N-ethyl-N-perfluorooctyl-sulfonyl)]>}-1,4,7,10-tetraazacyclododecane [25f)]
R^1 (T^1-relaxivity) [1]: 15.1 L/mmol/s

Compound: 1,4,7-Tris{N-hexanoyl-2,6-bis<amino-N-acetyl-2-[3,9-bis(N-carboxylato-methyl)-6-yl-3,6,9-triazaundecane-1-carboxylato-11-acid, Gd complex, monosodium salt]>}-10-[N-acetyl-(2-amino-N-ethyl-N-perfluorooctylsulfonyl)]-1,4,7,10- tetraazacyclododecane [26d)]
R^1 (T^1-relaxivity) [1]: 13.0 L/mmol/s

Compound: 1,4,7-Tris{N-hexanoyl-2,6-bis<amino-N-acetyl-2-[aminopropanoyl-(2-yl)]-[1,4,7-tris(N-carboxylatomethyl)-1,4,7,10-tetraazacyclododecan-10-yl, Gd complex]>}-10-[N-acetyl-(2-amino-N-ethyl-N-perfluorooctylsulfonyl)]-1,4,7,10-tetraazacyclododecane [Example 27]
R^1 (T^1-relaxivity) [1]: 16.1 L/mmol/s

Compound: C[NH2+]C[C@H](O)[C@@H](O)[C@H](O)[C@H](O)CO.O=C([O-])CN1CCN(CC(=O)[O-])CCN(CC(=O)[O-])CCN(CC(=O)[O-])CC1.[Gd+3] [Dotarem, meglumine salt of Gd-DOTA (Gadolinium(III)complex of 1,4,7,10-tetracarboxymethyl-1,4,7,10-tetraazacyclododecane)]
T^1-relaxivity [2]: 3.5 to 4.9 mM⁻¹ s⁻¹

Compound: C[NH2+]C[C@H](O)[C@@H](O)[C@H](O)[C@H](O)CO.C[NH2+]C[C@H](O)[C@@H](O)[C@H](O)[C@H](O)CO.O=C([O-])CN(CCN(CC(=O)[O-])CC(=O)[O-])CCN(CC(=O)[O-])CC(=O)[O-].[Gd+3] [Magnevist, di--N-methylglucamine salt of the Gd-DTPA complex, reference compound]
R^1 (T^1-relaxivity) [1]: 4.8 L/mmol/s | T^1-relaxivity [2]: 3.5 to 4.9 mM⁻¹ s⁻¹

Compound: CNC(=O)CN(CCN(CCN(CC(=O)[O-])CC(=O)NC)CC(=O)[O-])CC(=O)[O-].[Gd+3] [Omniscan]
T^1-relaxivity [2]: 3.5 to 4.9 mM⁻¹ s⁻¹

Compound: CC(O)CN1CCN(CC(=O)[O-])CCN(CC(=O)[O-])CCN(CC(=O)[O-])CC1.[Gd+3] (stereo not shown) [Pro Hance]
T^1-relaxivity [2]: 3.5 to 4.9 mM⁻¹ s⁻¹

Percentage of the dose that remains in the blood space ([3]; 30 seconds p.i.): 48% | Percentage of the dose that remains in the blood space ([3]; 3 minutes p.i.): 25% | Percentage of the dose that remains in the blood space ([3]; 10 minutes p.i.): 21% | Distribution volume Vss (MEAN) [4, 5]: 0.17 Ukg | Elimination half-life tβ (MEAN) [4, 5]: 20.7 min | Total clearance CLtot (MEAN) [4, 5]: 6.75 mU (min*kg) | tα (MEAN) [4, 5]: 2.07 min | Distribution volume Vss (MEAN) [4, 6]: 0.17 Ukg | Elimination half-life tβ (MEAN) [4, 6]: 18.5 min | Total clearance CLtot (MEAN) [4, 6]: 6.90 mL·kg·min | tα (MEAN) [4, 6]: 1.48 min
Compound: Dy-DTPA [reference compound]

Compound: Eu-DTPA-albumin [compound 2]
Percentage of the dose that remains in the blood space ([3]; 30 seconds p.i.): 100% | Percentage of the dose that remains in the blood space ([3]; 3 minutes p.i.): 100% | Percentage of the dose that remains in the blood space ([3]; 10 minutes p.i.): 100%
